# Data from patent US10610520B2, “Heterocyclic compound” (Takeda Pharmaceutical Company Limited, priority 2016, dated 2020).
# Molecular target: T1, His-hMAGL (recombinant polyhistidine tagged human MAGL protein) (Homo sapiens, UniProt Q99685)
# T1 construct: made in house; host or cells: E. coli BL21(DE3)
# T1 sequence (Q99685 1-303): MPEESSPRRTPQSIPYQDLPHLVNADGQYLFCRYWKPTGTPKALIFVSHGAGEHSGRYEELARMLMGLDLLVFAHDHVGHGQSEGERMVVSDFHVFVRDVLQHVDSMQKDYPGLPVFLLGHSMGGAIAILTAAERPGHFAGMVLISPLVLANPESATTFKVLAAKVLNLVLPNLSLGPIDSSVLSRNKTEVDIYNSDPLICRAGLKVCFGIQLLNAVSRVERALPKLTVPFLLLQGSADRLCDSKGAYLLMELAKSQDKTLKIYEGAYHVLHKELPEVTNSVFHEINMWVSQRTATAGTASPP
# Experiment: Measurement of MAGL inhibitory activity (arachidonic acid production from 2-arachidonylglycerol, RapidFire-mass spectrometry)
# Format: biochemical
# Settings: MAGL inhibitory rate, test compound 10 μM, 60 min preincubation, 2-arachidonylglycerol substrate
# Procedure, shortened: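 Arachidonic acid formed was quantified by online solid-phase extraction and triple-quadrupole MS in negative SRM mode against a d8 internal standard. Reaction: recombinant His-hMAGL (7.5 ng/mL, pH 7.5 Tris buffer with Triton X-100 and BSA) plus 2-AG (5 μL of 150 μM stock) for 10 min at room temperature, quenched with 2% formic acid. Percent inhibition corrected for enzyme-free background.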
row,inhibition at 10 µM [%],SMILES
1,101,"Cc1cc2c(Cl)c(C(=O)N3CC4(COC(=O)N4)C3)sc2cc1OC(F)(F)F [Example 295, 2-((3-chloro-5-methyl-6-(trifluoromethoxy)-1-benzothiophen-2-yl)carbonyl)-7-oxa-2,5-diazaspiro[3.4]octan-6-one]"
2,101,"Cc1cc(OC(F)(F)F)cc2sc(C(=O)N3CC4(COC(=O)N4)C3)c(Cl)c12 [Example 296, 2-((3-chloro-4-methyl-6-(trifluoromethoxy)-1-benzothiophen-2-yl)carbonyl)-7-oxa-2,5-diazaspiro[3.4]octan-6-one]"
3,100,"O=C1NC2(CO1)CN(C(=O)c1sc3c(Cl)ccc(OC(F)(F)F)c3c1Cl)C2 [Example 297, 2-((3,7-dichloro-4-(trifluoromethoxy)-1-benzothiophen-2-yl)carbonyl)-7-oxa-2,5-diazaspiro[3.4]octan-6-one]"
4,100,"O=C1NC2(CO1)CN(C(=O)c1sc3cc(OC(F)(F)F)c(Cl)cc3c1Cl)C2 [Example 298, 2-((3,5-dichloro-6-(trifluoromethoxy)-1-benzothiophen-2-yl)carbonyl)-7-oxa-2,5-diazaspiro[3.4]octan-6-one]"
5,101,"O=C1NC2(CO1)CN(C(=O)c1sc3ccc(OC(F)(F)F)cc3c1C(F)F)C2 [Example 300, 2-((3-(difluoromethyl)-5-(trifluoromethoxy)-1-benzothiophen-2-yl)carbonyl)-7-oxa-2,5-diazaspiro[3.4]octan-6-one]"
6,100,"O=C1NC2(CO1)CN(C(=O)c1sc3c(F)ccc(OC(F)(F)F)c3c1Cl)C2 [Example 301, 2-((3-chloro-7-fluoro-4-(trifluoromethoxy)-1-benzothiophen-2-yl)carbonyl)-7-oxa-2,5-diazaspiro[3.4]octan-6-one]"
7,101,"O=C1NC2(CO1)CN(C(=O)c1sc3c(C(F)F)c(OC(F)(F)F)ccc3c1Cl)C2 [Example 302, 2-((3-chloro-7-(difluoromethyl)-6-(trifluoromethoxy)-1-benzothiophen-2-yl)carbonyl)-7-oxa-2,5-diazaspiro[3.4]octan-6-one]"
8,100,"O=C1NC2(CO1)CN(C(=O)c1sc3c(Cl)c(OC(F)F)cc(F)c3c1Cl)C2 [Example 303, 2-((3,7-dichloro-6-(difluoromethoxy)-4-fluoro-1-benzothiophen-2-yl)carbonyl)-7-oxa-2,5-diazaspiro[3.4]octan-6-one]"
9,100,"Cc1c(OC(F)F)cc(F)c2c(Cl)c(C(=O)N3CC4(COC(=O)N4)C3)sc12 [Example 304, 2-((3-chloro-6-(difluoromethoxy)-4-fluoro-7-methyl-1-benzothiophen-2-yl)carbonyl)-7-oxa-2,5-diazaspiro[3.4]octan-6-one]"
10,100,"O=C1NC2(CO1)CN(C(=O)c1sc3cc(C(F)(F)F)cc(OC(F)F)c3c1Cl)C2 [Example 305, 2-((3-chloro-4-(difluoromethoxy)-6-(trifluoromethyl)-1-benzothiophen-2-yl)carbonyl)-7-oxa-2,5-diazaspiro[3.4]octan-6-one]"
11,100,"O=C1NC2(CO1)CN(C(=O)c1sc3cc(OC(F)(F)F)c(C(F)F)cc3c1Cl)C2 [Example 306, 2-((3-chloro-5-(difluoromethyl)-6-(trifluoromethoxy)-1-benzothiophen-2-yl)carbonyl)-7-oxa-2,5-diazaspiro[3.4]octan-6-one]"
12,100,"O=C1NC2(CO1)CN(C(=O)c1sc3cc(Br)ccc3c1Cl)C2 [Example 307, 2-((6-bromo-3-chloro-1-benzothiophen-2-yl)carbonyl)-7-oxa-2,5-diazaspiro[3.4]octan-6-one]"
13,101,"O=C1NC2(CO1)CN(C(=O)c1sc3cc(Cl)cc(Cl)c3c1Cl)C2 [Example 308, 2-((3,4,6-trichloro-1-benzothiophen-2-yl)carbonyl)-7-oxa-2,5-diazaspiro[3.4]octan-6-one]"
14,101,"O=C1NC2(CO1)CN(C(=O)c1sc3cc(C4=CCC(F)(F)CC4)cc(F)c3c1Cl)C2 [Example 309, 2-((3-chloro-6-(4,4-difluorocyclohex-1-en-1-yl)-4-fluoro-1-benzothiophen-2-yl)carbonyl)-7-oxa-2,5-diazaspiro[3.4]octan-6-one]"
15,100,"O=C1NC2(CO1)CN(C(=O)c1sc3cc(C4=CCC(F)(F)CC4)cc(F)c3c1C1=CCC(F)(F)CC1)C2 [Example 310, 2-((3,6-bis(4,4-difluorocyclohex-1-en-1-yl)-4-fluoro-1-benzothiophen-2-yl)carbonyl)-7-oxa-2,5-diazaspiro[3.4]octan-6-one]"
16,101,"O=C1NC2(CO1)CN(C(=O)c1sc3cc(C4CC4)cc(F)c3c1Cl)C2 [Example 311, 2-((3-chloro-6-cyclopropyl-4-fluoro-1-benzothiophen-2-yl)carbonyl)-7-oxa-2,5-diazaspiro[3.4]octan-6-one]"
17,101,"O=C1NC2(CO1)CN(C(=O)c1sc3cc(C4CC4)cc(F)c3c1C1CC1)C2 [Example 312, 2-((3,6-dichloropropyl-4-fluoro-1-benzothiophen-2-yl)carbonyl)-7-oxa-2,5-diazaspiro[3.4]octan-6-one]"
18,101,"O=C1NC2(CO1)CN(C(=O)c1sc3c(F)ccc(OC(F)F)c3c1Cl)C2 [Example 313, 2-((3-chloro-4-(difluoromethoxy)-7-fluoro-1-benzothiophen-2-yl)carbonyl)-7-oxa-2,5-diazaspiro[3.4]octan-6-one]"
19,101,"O=C1NC2(CO1)CN(C(=O)c1sc3cc(F)cc(OC(F)(F)F)c3c1Cl)C2 [Example 314, 2-((3-chloro-6-fluoro-4-(trifluoromethoxy)-1-benzothiophen-2-yl)caarbonyl)-7-oxa-2,5-diazaspiro[3.4]octan-6-one]"
20,100,"O=C1NC2(CO1)CN(C(=O)c1sc3c(F)c(OC(F)(F)F)cc(F)c3c1Cl)C2 [Example 315, 2-((3-chloro-4,7-difluoro-6-(trifluoromethoxy)-1-benzothiophen-2-yl)carbonyl)-7-oxa-2,5-diazaspiro[3.4]octan-6-one]"
21,100,"O=C1NC2(CO1)CN(C(=O)c1sc3cc(OC(F)(F)F)cc(C(F)F)c3c1Cl)C2 [Example 316, 2-((3-chloro-4-(difluoromethyl)-6-(trifluoromethoxy)-1-benzothiophen-2-yl)carbonyl)-7-oxa-2,5-diazaspiro[3.4]octan-6-one]"
22,96,"O=C1CCC2(CCN(C(=O)N3CC(COc4ccc(C(F)(F)F)cc4F)C3)C2)N1 (stereo not shown) [Example 319, 7-((3-((2-fluoro-4-(trifluoromethyl)phenoxy)methyl)azetidin-1-yl)carbonyl)-1,7-diazaspiro[4.4]nonan-2-one]"
23,94,"O=C1CCC2(CCN(C(=O)N3CC(COc4ccc5c(c4)CCCC5)C3)C2)N1 (stereo not shown) [Example 320, 7-((3-((5,6,7,8-tetrahydronaphthalen-2-yloxy)methyl)azetidin-1-yl)carbonyl)-1,7-diazaspiro[4.4]nonan-2-one]"
24,100,"O=C1NC2(CCN(C(=O)c3sc4cc(OC(F)(F)F)ccc4c3Cl)C2)CO1 (stereo not shown) [Example 321, 7-((3-chloro-6-(trifluoromethoxy)-1-benzothiophen-2-yl)carbonyl)-3-oxa-1,7-diazaspiro[4.4]nonan-2-one]"
25,100,"O=C1NC2(CCN(C(=O)N3CCC(COc4ccc(F)cc4Cl)CC3)C2)CO1 (stereo not shown) [Example 322, 7-((4-((2-chloro-4-fluorophenoxy)methyl)piperidin-1-yl)carbonyl)-3-oxa-1,7-diazaspiro[4.4]nonan-2-one]"
26,80,"O=C1NC2(CCN(C(=O)c3sc4cc(Cl)cc(Cl)c4c3Cl)C2)CO1 (stereo not shown) [Example 325, 7-((3,4,6-trichloro-1-benzothiophen-2-yl)carbonyl)-3-oxa-1,7-diazaspiro[4.4]nonan-2-one]"
27,99,"Cc1cc(F)c(F)c2sc(C(=O)N3CCC4(COC(=O)N4)C3)c(Cl)c12 (stereo not shown) [Example 328, 7-((3-chloro-6,7-difluoro-4-methyl-1-benzothiophen-2-yl)carbonyl)-3-oxa-1,7-diazaspiro[4.4]nonan-2-one]"
28,100,"Cc1c(OC(F)(F)F)ccc2c(Cl)c(C(=O)N3CCC4(COC(=O)N4)C3)sc12 (stereo not shown) [Example 329, 7-((3-chloro-7-methyl-6-(trifluoromethoxy)-1-benzothiophen-2-yl)carbonyl)-3-oxa-1,7-diazaspiro[4.4]nonan-2-one]"

# Same assay, conditions: MAGL inhibitory rate, test compound 10 μM, 60 min preincubation, 2-arachidonylglycerol substrate; 10 µM
row,% inhibition (10 μM) [%],SMILES
1,101,"O=C1NC2(CCN(C(=O)c3sc4cc(OC(F)(F)F)ccc4c3Cl)C2)CO1 (stereo not shown) [Example 323, 7-((3-chloro-6-(trifluoromethoxy)-1-benzothiophen-2-yl)carbonyl)-3-oxa-1,7-diazaspiro[4.4]nonan-2-one]"
2,94,"O=C1NC2(CCN(C(=O)c3sc4cc(OC(F)(F)F)ccc4c3Cl)C2)CO1 (stereo not shown) [Example 324, 7-((3-chloro-6-(trifluoromethoxy)-1-benzothiophen-2-yl)carbonyl)-3-oxa-1,7-diazaspiro[4.4]nonan-2-one]"
3,99,"O=C1NC2(CCN(C(=O)c3sc4cc(Cl)cc(Cl)c4c3Cl)C2)CO1 (stereo not shown) [Example 327, 7-((3,4,6-trichloro-1-benzothiophen-2-yl)carbonyl)-3-oxa-1,7-diazaspiro[4.4]nonan-2-one]"
